From patent US12435380B2, “Compositions and methods for the diagnosis and treatment of ALT cancer” (Texas Tech University System, priority 2018, dated 2025)
Entries after “also recorded” stand apart in the source; their conditions may differ.

Assays:
[1] = tested on: ALT rhabdomyosarcoma cell lines; assay: DIMSCAN cytotoxicity, rhabdomyosarcoma cell lines; type: cell-based, human; conditions: 5% O2
Method: FIGS. 8A and 8B are graphs of survival fraction versus PRIMA-1MET concentration and illustrate Cytotoxicity of PRIMA-1MET in ALT vs TERT+ Rhabdomyosarcoma. FIG. 8A illustrates ALT+ rhabdomyosarcoma grown in 5% O2 and FIG. 8B illustrates TERT+ rhabdomyosarcoma grown in 5% O2. Cytotoxicity of PRIMA-1MET was assessed for ALT and non-ALT (TERT+) rhabdomyosarcoma cell lines using DIMSCAN.

[2] = tested on: ALT neuroblastoma cell line CHLA-90; assay: PRIMA-1MET sensitivity after shRNA knockdown of ATM; type: cell-based, human
Source text: FIGS. 20A and 20B illustrate data for cell line CHLA-90. shRNA knockdown of ATM in the ALT neuroblastoma cell line CHLA-90 led to hyper-resistance to PRIMA-1MET. We hypothesize this is due to the loss of constitutive activation of ATM in ALT positive cell lines which would trigger senescence and apoptosis once PRIMA-1MET refolds mutant p53 in the presence of ATM.

ALT+ cell lines = assay: PRIMA-1MET IC50 with ATM or ATR kinase inhibitor, ALT+ lines; type: cell-based, human; conditions: with ATM kinase inhibitor (ATMi) or ATR kinase inhibitor (ATRi)
Source text: (§1) FIGS. 21A and 21B illustrate effect of inhibition of ATM or ATR kinase on sensitivity of ALT+vs TERT+(ALT-negative) using ATM kinase inhibitor (ATMi) or ATR kinase inhibitor (ATRi) ir ALT+ and TERT+ cell lines;
(§2) FIGS. 21A and 21B illustrate inhibition of kinase inhibitors for ALT+ and TERT+ cell lines Kinase Inhibitors antagonize PRIMA-1MET in ALT+ cell lines.

[3] = tested on: ALT+ neuroblastoma cell lines; assay: DIMSCAN cytotoxicity, neuroblastoma cell lines; type: cell-based, human
Method: FIG. 6 is a graph of survival fraction versus PRIMA-1MET concentration and illustrates high cytotoxicity of PRIMA-1MET in ALT+ versus TERT+(ALT negative) NB cell lines. FIG. 6 illustrates NB 5% O2. PRIMA-1MET dose response curves were analyzed using the DIMSCAN cytotoxicity assay system in 4 ALT+ neuroblastoma cell lines compared to 3 non-ALT, but TP53-mut cell lines.
FIGS. 7A and 7B are graphs of survival fraction versus PRIMA-1MET concentration and illustrate cytotoxicity of PRIMA-1MET in ALT+NB cell lines as enhanced by hypoxia. PRIMA-1MET cytotoxicity was assessed for 3 ALT neuroblastoma cell lines in ambient air culture conditions (20% O2) compared with bone marrow level hypoxia (5% O2).

[4] = tested on: ALT lymphoma cell lines TX-LY-064hnb, TX-LY-245h, COG-LY-357h; assay: DIMSCAN cytotoxicity, lymphoma cell lines; type: cell-based, human; conditions: vs TERT+ lines SUP-TI and COG-LY-459, 5% O2, p53 dysfunction
Source text: FIGS. 9A and 9B are graphs of survival fraction versus PRIMA-1MET concentration for ALT+p53 non-functional lymphoma 5% O2 and TERT+p53 non-functional lymphoma 5% O2, respectively. […] All lines had some form of p53 dysfunction.

[5] = tested on: ALT cell lines from various histologies; assay: Summary of cytotoxicity (IC50/IC90), ALT vs non-ALT cell lines of all histologies; type: cell-based, human
Source text: […] are graphs of PRIMA-1MET cytotoxicity of ALT vs non-ALT cell lines and illustrate PRIMA-1MET IC50/IC90 for all tested cancers. FIG. 8A illustrates IC50 20% O2, and FIG. 8B illustrates IC90 20% O2. IC50 5% O2, and IC90 5% O2 were also observed. Cytotoxicity data on all ALT cell lines from various histologies were compared with non-ALT cell lines of the same histologies, presented as inhibitory+cytotoxic concentrations for 50% (IC50) and 90% (IC90) of the cells.
FIGS. 11A and 11B are graphs showing cytotoxicity of ALT and non-ALT cell lines for IC50 and IC90. Cytotoxicity data on all ALT cell lines from various histologies compared with non-ALT cell lines of the same histologies. The data is presented as inhibitory+cytotoxic concentrations for 50% (IC50) and 90% (IC90) of the cells.

TERT+ cell lines = assay: PRIMA-1MET IC50 with ATM or ATR kinase inhibitor, TERT+ lines; type: cell-based, human; conditions: with ATM kinase inhibitor (ATMi) or ATR kinase inhibitor (ATRi)
Source text: as §1, §2

[6] = cited from earlier work
p21 and NOXA = assay: Immunoblots of apoptotic proteins after PRIMA-1MET; type: cell-based, human; conditions: TP53-mutated, 20 uM, 6, 12 and 24 hours
Method: FIGS. 5A and 5B are quantitative representations of immunoblots of apoptotic proteins with three ALT+ cell lines and two TERT+ lines. All cell lines were treated with 20 uM of PRIMA-1MET for 6, 12 and 24 hours. All cell lines were known to have TP53-inactivating mutations. […] We hypothesize this is due to the constitutive activation of ATM in ALT positive cell lines, which will trigger senescence and apoptosis once PRIMA-1MET refolds mutant TP53.

[7] = tested on: ALT+ p53 non-functional adult cell lines; assay: Cytotoxicity, ALT+ adult cell lines; type: cell-based, human; conditions: 5% O2
Source text: FIG. 10 is a graph of survival fraction versus PRIMA-1MET concentration for ALT+ adult cell lines showing the high activity of PRIMA1MET against ALT breast cancer, colorectal cancer, ovarian cancer, lung cancer, and leiomyosarcoma cell lines;
FIG. 10 is a graph of survival fraction versus PRIMA-1MET concentration for ALT+p53 non-functional adult cell lines 5% O2. All lines had some form of p53 dysfunction.

[8] = tested on: ALT+ neuroblastoma xenografts CHLA-90m and COG-N-669x; assay: ALT neuroblastoma xenografts, tumor volume; set-up: species or system athymic nude mice; conditions: mouse, in vivo
Method: FIGS. 22A and 22B are graphs tumor volume versus time for CHLA-90m and COG-N-669x. The neuroblastoma cell lines CHLA-90m and COG-N-669x were injected into athymic nude mice and drugged with PRIMA-1Met and BSO.

ALT cell lines = assay: PRIMA-1 activity in ALT cell lines from cancers other than neuroblastoma; type: cell-based, human; conditions: all ALT cell lines examined to date
[9] = tested on: ALT neuroblastoma cell lines; assay: PRIMA-1 activity in neuroblastoma cell lines, ALT vs non-ALT; type: cell-based, human; conditions: ALT vs TP53-mutated non-ALT neuroblastoma cell lines
Source text: Neuroblastoma provides a unique cancer for studying the role of changes that lead to inactivation of p53, such as TP53 inactivating mutations. This is because, unlike many other cancers, neuroblastomas at diagnosis and before therapy most frequently are p53 functional and there is a very low incidence of TP53 mutations. However, the incidence of p53 loss-of-function (often by TP53 mutation) increases in progressive disease after therapy. Because PRIMA-1 was developed as a drug that could restore p53 function to tumors with TP53 mutations, we assessed the activity of PRIMA-1 in neuroblastoma cell lines. Our panel of neuroblastoma cell lines includes p53-functional cell lines and those that have p53 loss-of-function and lines with TP53 mutations. The panel includes cell lines with TP53 mutations that are telomerase-positive (high TERT expression) and also TERT-low ALT (C-circle-positive) cell lines.
We have determined that the C-circle assay (specific for ALT cancers) identifies cancers that are especially responsive to PRIMA-1. While PRIMA-1 and APR-246 are being developed to treat TP53-mutated caners, only a subset of the latter respond to the drug as shown in preclinical studies and in the early phase I clinical trials. […]

## COCC1(CO)C(=O)C2CCN1CC2 (stereo not drawn) [PRIMA-1MET]
[1]
  sensitivity (survival fraction), ALT vs non-ALT rhabdomyosarcoma: more sensitive
[2]
  response to PRIMA-1MET after ATM knockdown: hyper-resistance
ALT+ cell lines
  change of IC50 with kinase inhibitors: greatly increases
[3]; 3 ALT neuroblastoma cell lines, 5% O2 compared with 20% O2
  cytotoxicity in hypoxia vs ambient air: even great cytotoxicity
[3]; 4 ALT+ vs 3 non-ALT TP53-mut cell lines, 5% O2
  sensitivity (survival fraction), ALT vs non-ALT neuroblastoma: significantly more sensitive
[4]
  sensitivity (survival fraction), ALT vs TERT+ lymphoma: more sensitive
[5]; all tested histologies
  sensitivity by IC50 and IC90, ALT vs non-ALT cell lines: significantly more sensitive
[5]; bone marrow level hypoxia (5% O2) vs 20% O2
  ALT vs non-ALT difference in IC50/IC90 in hypoxia: differences were greater
TERT+ cell lines
  change of IC50 with kinase inhibitors: little effect
[6]; at the maximally tolerated dose, out to ~12 hours
  plasma levels: > 10000 ng/mL
[6]; phase I, hematological malignancies and hormone-refractory prostate cancer
  maximally tolerated dose: 60 μg/m^2
[6]; phase I
  bone marrow toxicity: not observed
  most common adverse events: dizziness, headache, confusion, and other neurological complications
p21 and NOXA; three ALT+ cell lines
  NOXA expression: NOXA expression during longer treatment
  p21 expression: substantial increase
p21 and NOXA; two non-ALT (TERT+) cell lines
  NOXA expression: very little increase
  p21 expression: very little increase
[7]
  activity against ALT breast, colorectal, ovarian, lung cancer and leiomyosarcoma cell lines: high activity
[8]
  tumor volume, single agent relative to control: greater amount of activity

## O=C1C2CCN(CC2)C1(CO)CO [PRIMA-1]
ALT cell lines
  sensitivity of ALT cell lines to PRIMA-1: highly sensitive
[9]
  activity of PRIMA-1 in ALT vs non-ALT neuroblastoma: significantly greater in ALT neuroblastoma cell lines; also recorded: significantly higher in ALT neuroblastoma
